Legend:
olfactory receptor OR5K1 [1] = biological target: T1, olfactory receptor OR5K1 (Homo sapiens, UniProt Q8NHB7); assay: Antagonistic activity against the response of OR5K1 to Furaneol (luciferase assay); assay type: cell-based; conditions: Furaneol 3 mM, test substance 100 μM, HEK293 cells expressing OR5K1; vs Furaneol alone; read-out: Rate of inhibition of the response of OR5K1 to Furaneol
T1 construct: expressed in transfected cells; host or cells: HEK293
T1 sequence (Q8NHB7 1-308): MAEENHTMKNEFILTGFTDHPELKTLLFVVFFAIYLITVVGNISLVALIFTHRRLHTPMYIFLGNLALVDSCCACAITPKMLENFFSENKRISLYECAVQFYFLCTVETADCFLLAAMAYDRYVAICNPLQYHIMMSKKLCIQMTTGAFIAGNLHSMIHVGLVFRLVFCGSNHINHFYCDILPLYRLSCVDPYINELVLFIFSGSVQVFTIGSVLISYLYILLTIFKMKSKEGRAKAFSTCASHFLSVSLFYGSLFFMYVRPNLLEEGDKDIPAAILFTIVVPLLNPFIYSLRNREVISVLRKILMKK
Protocol: Furaneol (3 mM) and each test substance (100 μM) were added to HEK293 cells allowed to express the olfactory receptor OR5K1 by the same procedures as in Example 2. The response of the olfactory receptor was measured to evaluate change in receptor response caused by the addition of the test substance.
The rate of inhibition of the receptor response by the test substance was calculated as follows: firefly luciferase-derived luminescence intensity (Y) in the olfactory receptor OR5K1-expressing cells without Furaneol stimulation was subtracted from luminescence intensity (X) induced by stimulation with Furaneol alone to determine receptor activity (X−Y) based on the stimulation with Furaneol alone. Likewise, the luminescence intensity (Y) in the cells without Furaneol stimulation was subtracted from luminescence intensity (Z) induced by stimulation with the mixture of Furaneol and the test substance to determine receptor activity (Z−Y) in the presence of the test substance. The rate of reduction in the receptor activity (Z−Y) in the presence of the test substance with respect to the receptor activity (X−Y) based on the stimulation with Furaneol alone was calculated according to an expression shown below to determine the rate of inhibition of the receptor response by the test substance. In this assay, a plurality of independent duplicate experiments were performed. An average of the experiments in each run was obtained. Rate of inhibition (%)={1−(Z−Y)/(X−Y)}×100

olfactory receptor OR5K1 [2] = biological target: T1, olfactory receptor OR5K1; assay: Luciferase reporter gene assay, response of olfactory receptor to Furaneol; assay type: cell-based
Source text: On the basis of sequence information registered in GenBank, each human olfactory receptor gene was cloned by PCR with Human Genomic DNA Female (G1521: Promega Corp.) as a template. Each gene thus amplified by PCR was inserted into a pENTR vector (Invitrogen Corp.) according to the manual. A NotI-AscI site present on the pENTR vector was recombined into a NotI-AscI site prepared downstream of a Flag-Rho tag sequence on a pME18S vector.
A gene (GenBank GI: 50234917) encoding a human receptor transporting protein, RTP1S was inserted into the EcoRI-XhoI site of the pME18S vector.
HEK293 cells expressing each of 400 types of human olfactory receptors were prepared. […]
The olfactory receptors expressed on the HEK293 cells are conjugated with intracellular Gas to activate adenylate cyclase, thereby increasing intracellular cAMP levels. In this study, their responses to Furaneol were measured using luciferase reporter gene assay which involved monitoring increase in intracellular cAMP level as luminescence intensity derived from a firefly luciferase gene (fluc2P-CRE-hygro). […]
A medium was removed from the cultures prepared in the preceding paragraph 3). […] The luciferase activity was measured using Dual-Glo™ luciferase assay system (Promega Corp.) according to the instruction manual of the product. […]

Compound | inhibition at 100 µM (olfactory receptor OR5K1 [1]) [%] | Concentration dependence of OR5K1 response to Furaneol (olfactory receptor OR5K1 [2]; Furaneol 0, 3, 10, 30, 100, 300, 1000, 3000 μM, OR5K1 with human RTP1S in HEK293 cells) | Response of olfactory receptors to Furaneol (fold increase in luminescence) (olfactory receptor OR5K1 [2]; Furaneol 3 mM, 400 types of human olfactory receptors in HEK293 cells)
CC(=O)O[C@]1(C)CC[C@@]23C[C@@H]1C(C)(C)[C@@H]2CC[C@H]3C [Cedryl acetate] | ≥ 50 | – | –
CC(=O)c1cc2c(cc1C)C(C)(C)C(C)CC2(C)C [Tonalid(R), 1-(5,6,7,8-tetrahydro-3,5,5,6,8,8-hexamethyl-2-naphthalenyl)-ethanone] | ≥ 75 | – | –
CC1=C(O)C(=O)C(C)O1 (centres unmarked) [Furaneol, 2,5-dimethyl-4-hydroxy-3(2H)-furanone] | – | concentration-dependent response | only the olfactory receptor OR5K1 exhibited a response
CC(C)=CCCC(C)=CC=O [Citral] | ≥ 75 | – | –
